Here are results for twelve compounds from patent US8362023B2, “Pyrazolo pyrimidines” (Hoffmann-La Roche Inc., priority 2011, dated 2013).

pIC50: −log10 of the molar value. Where a name gives a salt, the structure may show the parent alone. Read-outs that look alike come from different tables or passages of the source.

One test has as its target T1, Human DYRK1B (Homo sapiens, UniProt Q9Y463).
T1 construct: purchased Invitrogen PR8350B (former PV4649)
Nature of the test: DYRK1B Kinase TR-FRET (IMAP-Tb) Assay. In kind it is biochemical. The note with it: for IC50: TR-FRET (IMAP-Tb), ATP 70 μM, 37° C. for 60 minutes, averages of multiple runs, read-out: Enzyme IC50 (μM) DYRK1B. From the text:
DYRK1B Kinase TR-FRET (IMAP-Tb) Assay Assay Principle The kinase TR-FRET (IMAP-Tb) assay uses a fluorescence labeled substrate peptide in the kinase reaction. Upon phosphorylation by the kinase, phosphopeptide is produced, which will be detected by the binding solution provided in IMAP TR-FRET binding kit. After the completion of the kinase reaction, the reaction will be stopped by adding the binding solution containing terbium tracer. This tracer is immobilized on the surface of the IMAP beads, which also contain metal ions on the beads that bind to the phospho-groups of the products. Thus the phosphorylated product of the reaction can enter into close proximity to the tracer, producing resonance energy transfer. Due to the long lifetime of terbium (Tb) fluorescence the detection can be run in time resolved mode, which virtually eliminates fluorescence interference from assay components or compounds. The TR-FRET signal measurement from this assay, given as an IC50 measurement, is a measure of a test compound's ability to interfere with the phosphorylation of the peptide substrate, that is it inhibits the phosphorylation of the substrate peptide by DYRK1B, and is thus a measure of the test compound's ability to inhibit the activity of DYRK1B. IC50 is the amount of test compound that inhibits 50% of the activity of DYRK1B in this assay. In some cases where the IC50 was not determined, then the % inhibition at 10 μM test compound concentration may be reported. Materials and Reagents • 1. Human DYRK1B: from Invitrogen. Part #PR8350B (former PV4649) • 2. Substrate Peptide: in-house synthesized: RRRFRPASPLRGPPK • 3. IMAP TR-FRET IPP Explorer Kit: from Molecular Devices. Part #R8157 • 4. Kinase Assay Buffer (KAB): 10 mM HEPES pH 7.0, 50 mM NaCl, 5 mM MgCl2, 1 mM DTT, 1 mM NaVO4, 200 μg/mL BSA (0.02%) • 5. Assay Plate: Remp polypropylene clear 384-well microplate. Cat#23490-102 • 6. Detection Plate: Costa black 384-well microplate. Cat #3710 Assay Procedure: this Assay was Performed as Follows: • 1. Transfer 1.5 μL of 20× compound solution to each well of an assay plate. • 2. Add to each well 22.5 μL of KAB Buffer. • 3. Add to each well 3 μL of the solution of DYRK1B and ATP. […] Add to each well 3 μL of the substrate peptide. The assay concentration is 1.0 μM • 5. Incubate the assay plates at 37° C. for 60 minutes. • 6. Add 18 μL of Detection Solution (1:800 diluted Progress bead stock, 1:400 diluted Tb stock, 80% Buffer A, and 20% Buffer B) into each well of detection plates. • 7. Transfer 6 μL of assay solution from the assay plate to the detection plate. • 8. Shake detection plates for 30 minutes. • 9. Read plates in Envision with wavelength set at excitation 340 nm for Tb, emission 490 nm, and […] 520 nm. • 10. Calculation: TR-FRET Signal=(Reading at […]/Reading at 490 nM)×2000000

A further test has as its target T2, Human DYRK1A (Homo sapiens, UniProt Q13627).
T2 construct: purchased Invitrogen PV3997
Nature of the test: DYRK1A Kinase TR-FRET (IMAP-Tb) Assay. In kind it is biochemical. The note with it: TR-FRET (IMAP-Tb); ATP 70 μM; 37° C. for 60 minutes; averages of multiple runs; read-out: Enzyme IC50 (μM) DYRK1A. From the text:
DYRK1A Kinase TR-FRET (IMAP-Tb) Assay
The kinase TR-FRET (IMAP-Tb) assay uses a fluorescence labeled substrate peptide in the kinase reaction. Upon phosphorylation by the kinase, phosphopeptide is produced, which will be detected by the binding solution provided in IMAP TR-FRET binding kit. After the completion of the kinase reaction, the reaction will be stopped by adding the binding solution containing terbium tracer. This tracer is immobilized on the surface of the IMAP beads, which also contain metal ions on the beads that bind to the phospho-groups of the products. Thus the phosphorylated product of the reaction can enter into close proximity to the tracer, producing resonance energy transfer. Due to the long lifetime of terbium (Tb) fluorescence the detection can be run in time resolved mode, which virtually eliminates fluorescence interference from assay components or compounds.
The TR-FRET signal measurement from this assay, given as an IC50 measurement, is a measure of a test compound's ability to interfere with the phosphorylation of the peptide substrate, that is it inhibits the phosphorylation of the substrate peptide by DYRK1A, and is thus a measure of the test compound's ability to inhibit the activity of DYRK1A.
Materials and Reagents • 1. Human DYRK1A: from Invitrogen. Part #PV3997 • 2. Substrate Peptide: […] • 3. IMAP TR-FRET IPP Explorer Kit: from Molecular Devices. Part #R8157 • 4. Kinase Assay Buffer (KAB): 10 mM HEPES pH 7.0, 50 mM NaCl, 5 mM MgCl2, 1 mM DTT, 1 mM NaVO4, 200 ug/mL BSA (0.02%) • 5. Assay Plate: Remp polypropylene clear 384-well microplate. […] Detection Plate: Costa black 384-well microplate.
Assay Procedure: this Assay was Performed as Follows: • 1. Transfer 1.5 μL of 20× compound solution to each well of an assay plate. • 2. Add to each well 22.5 μL of KAB Buffer. • 3. Add to each well 3 μL of the solution of DYRK1A and ATP. […] Add to each well 3 μL of the substrate peptide. The assay concentration is 1.0 μM • 5. Incubate the assay plates at 37° C. for 60 minutes. • 6. Add 18 μL of Detection Solution (1:800 diluted Progress bead stock, 1:400 diluted Tb stock, 80% Buffer A, and 20% Buffer B) into each well of detection plates. • 7. Transfer 6 μL of assay solution from the assay plate to the detection plate. • 8. Shake detection plates for 30 minutes. • 9. Read plates in Envision with wavelength set at excitation 340 nm for Tb, emission 490 nm, and […] 520 nm. • 10.

Test [1] concerns SW620 human colon cancer cells. Nature of the test: SW620 Cell Viability Assay. In kind it is cell-based. The note with it: SW-620, 96 h, CellTiter-Glo Luminescent Cell Viability Assay, 4 days incubation, read-out: Cellular EC50 (μM) SW620. The method, then: SW620 Cell Viability Assay
1. Cell Plate Preparation: SW620 human colon cancer cells (known to express DYRK1B), obtained from ATCC, were seeded into 96-well plates at 3×10^3 cells/well in 50 μL of media. • Harvested the required number of cells (counts & viability determined by Guava Viacount). • Centrifuge cells to pellet and removed supernant. • Resuspended in growth media (50 μL/well) & pipetted thoroughly to break up clumps. • Setup for ˜100 wells/plate, therefore, VT=5 mL/plate @ […].
1A. Some cells (S—) were allowed to attach for 24 hrs, serum starved for 48 hrs, and then followed with test compound treatments.
Test compound solution were prepared in regular corresponding media supplemented with serum.
2. Test compound Preparation: Drugs were solubilized in either DMSO or media and prepared at various stock concentrations. • All compounds were incubated at 37° C. for 30 minutes and vortexed. • (5 mM stocks of test compound were prepared for non-soluble test compounds)
3. Test compound Plate Preparation: • The 10 mM test compound stock was diluted to a concentration of 100× the final Cmax concentration. • Then the test compound stock is diluted 50-fold in media and/or second test compound for a final Cmax concentration in the test compound plate. • The Cmax in the test compound plate (2% DMSO) is 2-fold higher than the final Cmax in the cell plate (60 μl, titrations were 1:3).
4. Viability Assay: This assay was performed as follows: • Transfer 50 μL of test compound solution per well from the test compound plate onto the cell plate prepared in Step #1. • Mix the plate with treated cells by pipetting up and down three times with 200 μL multi-channel pipette. • Incubate the cells in 5% CO2 incubator @ 37° C. for 4 days. • Run the CellTiter-Glo™ Luminescent Cell Viability Assay.
The results of this assay, given as EC50 values, indicate the concentration of test compound that inhibits tumor cell proliferation by 50%.

T1 sequence (Q9Y463 whole entry): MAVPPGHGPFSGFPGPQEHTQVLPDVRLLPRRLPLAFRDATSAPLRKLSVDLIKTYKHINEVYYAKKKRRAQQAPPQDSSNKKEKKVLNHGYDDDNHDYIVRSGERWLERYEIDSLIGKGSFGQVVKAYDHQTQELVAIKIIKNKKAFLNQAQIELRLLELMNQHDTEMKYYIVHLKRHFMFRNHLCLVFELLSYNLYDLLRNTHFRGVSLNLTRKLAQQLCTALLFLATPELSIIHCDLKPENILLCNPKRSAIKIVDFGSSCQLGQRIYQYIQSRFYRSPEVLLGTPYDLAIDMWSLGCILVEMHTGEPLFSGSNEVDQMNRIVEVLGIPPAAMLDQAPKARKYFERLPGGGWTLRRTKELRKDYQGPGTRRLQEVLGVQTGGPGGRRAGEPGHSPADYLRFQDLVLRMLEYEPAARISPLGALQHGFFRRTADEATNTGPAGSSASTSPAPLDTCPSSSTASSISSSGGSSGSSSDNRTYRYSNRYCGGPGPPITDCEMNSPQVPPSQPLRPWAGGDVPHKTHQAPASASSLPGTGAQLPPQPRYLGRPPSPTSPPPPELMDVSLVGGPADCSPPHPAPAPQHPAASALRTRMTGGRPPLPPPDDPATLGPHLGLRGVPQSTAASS

Regarding `NCC(Nc1nccc(-c2n[nH]c3nc(N[C@H]4CC[C@H](N)CC4)ncc23)n1)c1cccc(Cl)c1` (stereo partly shown) [Example 78, N-(3-{2-[2-Amino-1-(3-chloro-phenyl)-ethylamino]-pyrimidin-4-yl}-1H-pyrazolo[3,4-d]pyrimidin-6-yl)-cyclohexane-1,4-diamine; hydrochloride], the half-inhibitory concentration (IC50) at Human DYRK1B was under 0.0046 µM; at Human DYRK1A, 0.0046 µM. For the same compound, in test [1], the EC50 stood at 0.7 µM.
On the same counts, the results for `Clc1ccccc1CNc1cccc(-c2n[nH]c3nc(NCCN4CCOCC4)ncc23)c1` [Example 57, {3-[3-(2-Chloro-benzylamino)-phenyl]-1H-pyrazolo[3,4-d]pyrimidin-6-yl}-(2-morpholin-4-yl-ethyl)-amine] are 1.55 µM, 2.62 µM and over 10 µM.
On the same counts, the results for `NCCC(Nc1nccc(-c2n[nH]c3nc(N[C@H]4CC[C@H](N)CC4)ncc23)n1)c1cccc(Cl)c1` (stereo partly shown) [Example 80, N-(3-{2-[3-Amino-1-(3-chloro-phenyl)-propylamino]-pyrimidin-4-yl}-1H-pyrazolo[3,4-d]pyrimidin-6-yl)-cyclohexane-1,4-diamine; hydrochloride] are under 0.0046 µM, 0.0046 µM and 0.89 µM.
On the same counts, the results for `NCCC(Nc1nccc(-c2n[nH]c3nc(NCCN4CCOCC4)ncc23)n1)c1ccccc1` (stereo not shown) [Example 81, N1-{4-[6-(2-Morpholin-4-yl-ethylamino)-1H-pyrazolo[3,4-d]pyrimidin-3-yl]-pyrimidin-2-yl}-1-phenyl-propane-1,3-diamine; hydrochloride] are 0.0944 µM, 0.112 µM and 1.75 µM.
Turning to `N[C@H]1CC[C@H](Nc2ncc3c(-c4ccnc(NCc5ccsc5)n4)n[nH]c3n2)CC1` [Example 66, N-(3-{2-[(Thiophen-3-ylmethyl)-amino]-pyrimidin-4-yl}-1H-pyrazolo[3,4-d]pyrimidin-6-yl)-cyclohexane-1,4-diamine; hydrochloride], the IC50 at Human DYRK1B was 0.0172 µM; on Human DYRK1A, 0.0148 µM. Further, in test [1], the EC50 came out at 0.04 µM.
As for `Clc1ccccc1CNc1cccc(-c2n[nH]c3nc(NCCN4CCOCC4)ncc23)n1` [Example 59, {3-[6-(2-Chloro-benzylamino)-pyridin-2-yl]-1H-pyrazolo[3,4-d]pyrimidin-6-yl}-(2-morpholin-4-yl-ethyl)-amine], the results for the IC50 on Human DYRK1B and at Human DYRK1A were 0.924 µM and 0.663 µM, respectively. Moreover, in test [1], the EC50 is over 10 µM.
Taken in the same sequence, the figures for `N[C@H]1CC[C@H](Nc2ncc3c(-c4cccc(NCc5cccs5)c4)n[nH]c3n2)CC1` [Example 53, N-(3-{3-[(Thiophen-2-ylmethyl)-amino]-phenyl}-1H-pyrazolo[3,4-d]pyrimidin-6-yl)-cyclohexane-1,4-diamine] were 0.183 µM, 0.405 µM and 1.84 µM.
Regarding `OCCNc1ncc2c(-c3ccnc(NCc4cccc(Cl)c4)n3)n[nH]c2n1` [Example 91, 2-{3-[2-(3-Chloro-benzylamino)-pyrimidin-4-yl]-1H-pyrazolo[3,4-d]pyrimidin-6-ylamino}-ethanol; hydrochloride], the half-maximal inhibitory concentration (IC50) at Human DYRK1B was 0.183 µM; at Human DYRK1A it was 0.25 µM.
Regarding `NCCC(Nc1cccc(-c2n[nH]c3nc(NCCN4CCOCC4)ncc23)c1)c1ccccc1` (stereo not shown) [Example 73, N1-{3-[6-(2-Morpholin-4-yl-ethylamino)-1H-pyrazolo[3,4-d]pyrimidin-3-yl]-phenyl}-1-phenyl-propane-1,3-diamine; hydrochloride], the IC50 on Human DYRK1B stood at 9.59 µM; at Human DYRK1A, 4.88 µM.
At Human DYRK1B, `NCC(Nc1nccc(-c2n[nH]c3nc(NCCN4CCOCC4)ncc23)n1)c1ccccc1` (stereo not shown) [Example 83, N1-{4-[6-(2-Morpholin-4-yl-ethylamino)-1H-pyrazolo[3,4-d]pyrimidin-3-yl]-pyrimidin-2-yl}-1-phenyl-ethane-1,2-diamine; hydrochloride] gave a pIC50 of 7.74. The EC50 in test [1] worked out at 0.56 µM.
Turning to `N[C@H]1CC[C@H](Nc2ncc3c(-c4cccc(NCc5ccsc5)n4)n[nH]c3n2)CC1` [Example 65, N-(3-{6-[(Thiophen-3-ylmethyl)-amino]-pyridin-2-yl}-1H-pyrazolo[3,4-d]pyrimidin-6-yl)-cyclohexane-1,4-diamine; hydrochloride], the IC50 at Human DYRK1B is under 0.005 µM; at Human DYRK1A it was 0.021 µM.
Taken in the same sequence, the figures for `c1ccc(CNc2cccc(-c3n[nH]c4nc(NCCN5CCOCC5)ncc34)n2)cc1` [Example 45, [3-(6-Benzylamino-pyridin-2-yl)-1H-pyrazolo[3,4-d]pyrimidin-6-yl]-(2-morpholin-4-yl-ethyl)-amine] were 4.58 µM and 2.31 µM.
